Measurements as given in ChEMBL document CHEMBL1201862, “PubChem BioAssay data set” (2004).
Activity calls are given as the source filed them.

Key:
[1] = target: Serine/threonine-protein phosphatase PP1-alpha catalytic subunit (Homo sapiens, UniProt P62136); test: inhibition of protein phosphatase 1 activity – biochemical, fluorescence, dose response (AID 2403);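 note: phosphatase turnover of OMFP into fluorescent 3-O-methylfluorescein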
[2] = Trypanosoma cruzi growth suppression in host cells – NIH3T3 host cells, beta-gal luminescence, confirmation (AID 2044); type: functional, cell-based;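 note: intracellular parasites grown in NIH/3T3 mouse fibroblasts as host cells; luminescent beta-galactosidase reporter signal from transgenic T. cruzi replicating inside host cells; inhibitors lower the luminescence signal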
[3] = target: Serine/threonine-protein phosphatase (Homo sapiens, UniProt Q9BPW0); test: Counterscreen for inhibitors of PP1: fluorescence-based biochemical high throughput dose response assay to identify inhibitors of Protein Phosphatase 5 (PP5). [Related pubchem assays: 2034 (Summary (PP5 inhibitors)), 1987 (PP5 inhibitors in singlate), 2235 (PP1 inhibitors in singlate)]
Serine/threonine-protein phosphatase, sequence (Q9BPW0 whole entry): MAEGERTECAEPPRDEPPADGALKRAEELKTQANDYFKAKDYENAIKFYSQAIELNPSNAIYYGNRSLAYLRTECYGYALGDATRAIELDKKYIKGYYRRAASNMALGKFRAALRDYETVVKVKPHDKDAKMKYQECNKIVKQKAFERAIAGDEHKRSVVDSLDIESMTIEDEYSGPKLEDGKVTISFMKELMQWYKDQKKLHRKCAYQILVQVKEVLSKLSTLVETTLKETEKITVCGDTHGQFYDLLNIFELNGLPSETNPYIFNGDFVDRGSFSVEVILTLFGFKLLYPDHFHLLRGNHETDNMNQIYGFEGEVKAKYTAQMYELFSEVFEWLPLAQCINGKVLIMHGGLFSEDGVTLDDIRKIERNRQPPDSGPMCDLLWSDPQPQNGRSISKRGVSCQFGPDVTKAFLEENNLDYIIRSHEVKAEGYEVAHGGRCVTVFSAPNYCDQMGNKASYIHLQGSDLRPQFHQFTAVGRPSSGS

[4] = NIH3T3 cell viability loss – ATP luminescence, mouse fibroblasts, counter-screen, dose response (AID 2010); type: functional, cell-based;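 note: cells exposed to compound for about 90 hours before reading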
Nonstructural protein 1 = Nonstructural protein 1 (Influenza A virus, UniProt Q194T2); type: functional, Influenza A virus (A/California/07/2009(H1N1))
Nonstructural protein 1, sequence (Q194T2 whole entry): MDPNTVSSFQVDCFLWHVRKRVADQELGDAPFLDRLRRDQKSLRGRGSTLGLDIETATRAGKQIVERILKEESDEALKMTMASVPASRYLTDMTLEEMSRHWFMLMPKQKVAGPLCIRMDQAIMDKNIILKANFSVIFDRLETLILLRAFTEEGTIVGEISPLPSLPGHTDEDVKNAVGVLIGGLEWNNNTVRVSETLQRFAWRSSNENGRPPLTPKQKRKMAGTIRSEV

INS1 = test: INS-1E survival protection against cytokine death – cell-based, luminescence, retest, dose response (AID 449756); type: functional; conditions: Rattus norvegicus;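 note: cell death triggered by IL-1 beta plus TNF-alpha plus IFN-gamma mixture; protective hits raise ATP signal compared with cytokine alone wells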
[5] = target: Photoreceptor-specific nuclear receptor (Homo sapiens, UniProt Q9Y5X4); type: functional, cell-based;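 note: CHO-S cells with Gal4-NCOR and VP16-NR2E3 two-hybrid luciferase reporter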
Photoreceptor-specific nuclear receptor, sequence (Q9Y5X4 whole entry, the tested form may be a part): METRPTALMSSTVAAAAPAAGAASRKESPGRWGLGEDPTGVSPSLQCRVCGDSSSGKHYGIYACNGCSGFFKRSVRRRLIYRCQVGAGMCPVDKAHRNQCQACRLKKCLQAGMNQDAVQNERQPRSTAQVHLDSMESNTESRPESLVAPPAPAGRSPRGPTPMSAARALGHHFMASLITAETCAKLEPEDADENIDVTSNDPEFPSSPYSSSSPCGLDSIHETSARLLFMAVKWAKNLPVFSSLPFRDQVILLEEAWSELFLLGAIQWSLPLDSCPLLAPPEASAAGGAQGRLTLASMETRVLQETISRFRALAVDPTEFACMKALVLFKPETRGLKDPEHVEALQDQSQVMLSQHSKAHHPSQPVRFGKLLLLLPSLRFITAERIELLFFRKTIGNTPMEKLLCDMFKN

HEK293 = test: Fluorescence-based counterscreen for potentiators or agonists of NPY-Y2: cell-based high-throughput dose response assay to identify inhibitors of cyclic nucleotide gated ion channel (CNGC) activity. In this assay, the parental HEK293 cell line transfected with a cyclic-nucleotide gated ion channel (CNGC)-based cAMP sensor is used to measure inhibition of isoproterenol-induced CNGC activity by test compound.; type: functional; conditions: Homo sapiens;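 note: stimulus is 1 µM isoproterenol at EC100 plus PDE inhibitor Ro 20-1724 at 25 µM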
[6] = target: T1, Neuropeptide Y receptor type 2 (Homo sapiens, UniProt P49146); test: Fluorescence-based cell-based high-throughput dose response assay for agonists of NPY-Y2. [Related pubchem assays: 1703 (Screening assay (CNGC inhibitors).), 1359 (Screening assay (NPY-Y2 potentiators or agonists).), 1304 (Screening assay (NPY-Y1 potentiators or agonists).), 1710 (Screening assay (NPY-Y2 agonists).), 1791 (Summary AID.)]; type: functional
T1 sequence (P49146 whole entry): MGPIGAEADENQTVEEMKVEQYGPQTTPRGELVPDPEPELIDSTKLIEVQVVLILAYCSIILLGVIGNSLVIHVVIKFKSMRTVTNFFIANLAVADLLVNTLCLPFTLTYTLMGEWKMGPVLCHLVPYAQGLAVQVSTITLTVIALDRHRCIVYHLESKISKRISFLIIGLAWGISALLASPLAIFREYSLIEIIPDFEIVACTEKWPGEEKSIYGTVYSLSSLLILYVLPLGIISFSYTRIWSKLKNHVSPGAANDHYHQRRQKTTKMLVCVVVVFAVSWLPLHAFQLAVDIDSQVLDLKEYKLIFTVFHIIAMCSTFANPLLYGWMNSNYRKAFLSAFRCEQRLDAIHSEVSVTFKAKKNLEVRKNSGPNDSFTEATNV

[7] = target: T2, Neuropeptide Y receptor type 1 (Homo sapiens, UniProt P25929); test: Fluorescence-based counterscreen for agonists of NPY-Y2: cell-based high-throughput dose response assay for agonists of NPY-Y1.; type: functional
T2 sequence (P25929 whole entry): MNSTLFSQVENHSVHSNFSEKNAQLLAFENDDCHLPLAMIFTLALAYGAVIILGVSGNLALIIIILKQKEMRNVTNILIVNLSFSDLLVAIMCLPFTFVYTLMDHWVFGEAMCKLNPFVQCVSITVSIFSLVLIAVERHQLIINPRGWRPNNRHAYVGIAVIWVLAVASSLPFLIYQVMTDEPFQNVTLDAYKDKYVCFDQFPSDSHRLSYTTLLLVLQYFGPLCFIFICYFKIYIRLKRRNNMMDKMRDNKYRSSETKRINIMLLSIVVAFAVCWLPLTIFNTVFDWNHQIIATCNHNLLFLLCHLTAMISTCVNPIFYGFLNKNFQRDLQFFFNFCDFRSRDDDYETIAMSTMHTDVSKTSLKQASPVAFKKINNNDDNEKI

Serine/threonine-protein phosphatase PP1-alpha catalytic subunit, sequence (P62136 whole entry): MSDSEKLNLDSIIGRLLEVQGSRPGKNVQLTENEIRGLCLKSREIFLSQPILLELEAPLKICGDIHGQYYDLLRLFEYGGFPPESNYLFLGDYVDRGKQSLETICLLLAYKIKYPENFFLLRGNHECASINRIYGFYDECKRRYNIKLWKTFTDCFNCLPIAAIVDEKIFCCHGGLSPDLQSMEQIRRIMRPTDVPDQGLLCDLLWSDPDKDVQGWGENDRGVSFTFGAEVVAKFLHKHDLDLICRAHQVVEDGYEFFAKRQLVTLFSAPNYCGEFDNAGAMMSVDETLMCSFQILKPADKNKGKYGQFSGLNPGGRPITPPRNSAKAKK

| Structure (SMILES) | IC50 [1] | EC50 [2] | IC50 [3] | EC50 [4] | IC50 (Nonstructural protein 1) | AC50 (INS1) | IC50 [5] | EC50 (HEK293) | EC50 [6] | EC50 [7] |
| --- | --- | --- | --- | --- | --- | --- | --- | --- | --- | --- |
| Nc1nc(-c2ccccn2)nc(N)c1Cc1c(F)cccc1Cl | 7.4 µM (active) | 1.18 µM (active) | 62.2 µM (not active) | 5.25 µM (active) | 6.42 µM (active) | 5.84 µM (active) | 4.08 µM (active) |  |  |  |
| O=C1C2CC=CCC2C(=O)N1c1ccc(NCCc2ccc(O)cc2)c([N+](=O)[O-])c1 (stereo not given) |  |  |  |  |  |  |  | 15.3 µM (not active) | > 35.4 µM (not active) | 26.5 µM (not active) |
